Measured values from patent US9988680B2, “Non-natural nucleosides as theranostic agents” (Case Western Reserve University, priority 2011, dated 2018).
Converted amounts (≈) assume the structure as drawn.

Tests used:
[1] = tested on: RS4(11) cells; assay: Cell proliferation assay (trypan blue), RS4(11); type: cell-based; settings: up to 72 h
Description: (§1) Cells were seeded at a population density of ˜200,000 cells mL-1 and treated with variable concentrations of non-natural nucleoside (0.1-100 μg mL-1) for up to 72 h. The final DMSO concentration in all experiments was 0.1%. Cell viability was assessed via trypan blue staining and counting the number of viable (clear) versus non-viable (blue) cells under a microscopy using a hemocytometer. The IC50 values for both nonnatural nucleosides were obtained using a nonlinear regression curve fit of the data to eq 3. LD50 values for the non-natural nucleosides were calculated using identical approaches.
(§2) Identical cell-based experiments were performed with the other ALL cell lines, and the corresponding IC50 and LD50 values for 5-NIdR and 3-Eth-5-NIdR against each cell line are summarized in Table 2. […] The increased potency of 3-Eth-5-NIdR likely reflects the higher catalytic efficiency for the corresponding nucleoside triphosphate to act as a chain-terminating substrate for TdT. […] In general, there is an excellent correlation (R^2=0.695, p<0.0001) between the anti-cancer effects of the non-natural nucleoside with TdT level. Similar analyses were performed by plotting the LD50 values of 3-Eth-5-NIdR as a function of TdT content (FIG. 3E).

[2] = tested on: J45.01 cells; assay: Cell proliferation assay (trypan blue), J45.01; type: cell-based; settings: J45.01, up to 72 h
Description: as §1, §2

[3] = tested on: MOLT4 cells; assay: Cell proliferation assay (trypan blue, viable vs non-viable cells), MOLT4; type: cell-based; settings: for IC50 / LD50: MOLT4, up to 72 h
Description: as §1
This hypothesis was tested by measuring the cytostatic and/or cytotoxic effects of the corresponding nucleoside, 3-Eth-5-NIdR, and 5-nitroindolyl-2′-deoxynucleoside (5-NIdR) against various ALL cell lines including MOLT4, CEM-C7, Jurkat, RS4(11), JS45.01, and Loucy. Western blot analyses was first performed to determine TdT levels in each ALL cell line. […] We next tested the efficacy of 5-NIdR and 3-Eth-5-NIdR by treating exponentially growing cells with variable concentrations (0.1-100 μg mL^−1) of each non-natural nucleoside for time periods of up to 3 days.

[4] = tested on: MOLT4 cells; assay: Apoptosis measurement (Annexin V-Alexa Fluor 488 / propidium iodide flow cytometry); type: cell-based; settings: for PI uptake (necrotic cell death): MOLT4
Description: Cells were treated with DMSO (vehicle), 5-NIdR (100 μg mL-1), and 3-Eth-5-NIdR (10 and 40 μg mL-1) as described above. Cells were harvested by centrifugation and washed in phosphate-buffered saline and resuspended in 100 μL of binding buffer containing AnnexinV-Alexa Fluor 488 conjugate. Cells were treated with propidium iodide (PI) and incubated at RT for 15 min followed by flow cytometry analysis. This enables live cells (unstained with either Alexa Fluor 488 or PI) to be discriminated from early apoptotic (stained with Alexa Fluor 488), late apoptotic cells (stained with Alexa Fluor 488 and PI), and necrotic cells (stained with PI).
The mechanism by which these non-natural nucleosides induce cell death was interrogated using dual parameter FACS analyses measuring propidium iodide uptake and Alexa Fluor488 annexin V conjugate staining. This allows live cells (unstained with either fluorophore) to be distinguished from cells that are early apoptotic (annexin V staining only), late apoptotic (propidium iodide and annexin V staining), and necrotic (propidium iodide staining only). […] In this case, treatment with 100 μg mL^−1 5-NIdR causes a 5-fold increase in early and late stage apoptosis, respectively. […] The induction of apoptosis was also independently confirmed by using agarose gel electrophoresis to observe DNA cleavage sites between nucleosomes that occur in chromatin at ˜200-base pair intervals.

[5] = tested on: CEM-C7 cells; assay: Cell proliferation assay (trypan blue), CEM-C7; type: cell-based; settings: CEM-C7, up to 72 h
Description: as §1, §2

[6] = tested on: MOLT4 cells; assay: In situ click reaction with AlexaFluor488-azide, flow cytometry, MOLT4; type: cell-based
Description: (§3) In situ “click” reactions were performed using cells harvested after 2 days of treatment with DMSO, 3-Eth-5-NIdR (10, 40, or 100 μg mL^−1), 5-NIdR (100 μg mL^−1) or 5-ethynyl-2′-deoxyuridine (EdU) (10 μM). All cells were fixed with cold methanol. Under minimal lighting, cells were treated with 0.3 mL of saponin-based permeabilization and wash buffer for 45 min at 37° C. Click reactions were initiated by adding the click-iT reaction cocktail according to the instructions of the manufacturer (Invitrogen) followed by incubation at 37° C. for 90 min. Cells were then washed two times with saponin-based permeabilization and wash buffer. Cell pellets were dislodged using 0.5 mL solution of 10 μg mL^−1 PI and RNAase A in saponin-based permeabilization and wash buffer and then incubated for at least 15 min prior to flow cytometry analysis.
MOLT4 cells were treated with DMSO, EdU (a “clickable” thymidine analogue), 5-NIdR, and 3-Eth-5-NIdR for 2 days and then washed with PBS to remove any nucleoside and/or nucleotide not incorporated into DNA. After fixation and permeabilization, the cells were treated with AlexaFluor488-azide and Cu(I) catalyst to commence “clicking” of any incorporated nonnatural nucleotide. Dual parameter flow cytometry applying PI staining coupled with detection of the AlexaFluor488 fluorophore was used to detect the “clicked” non-natural nucleotide in cellular DNA. […] This high amount of “clicked” DNA reflects transport of EdU into the cell, conversion to the corresponding nucleoside triphosphate, and incorporation into the DNA of replicating cells. MOLT4 cells treated with 10 μg mL^−1 3-Eth-5-NIdR also show appreciable levels of AlexaFluor488 stained DNA (2.8%) after 2 days of treatment. Furthermore, the amount of “clicked” DNA is dosedependent as treatment with 40 μg mL^−1 Eth-5-NIdR yields a […] increase in AlexaFluor488 staining (6.5%). Identical experiments were performed using the Loucy cell line that lacks TdT and thus is less sensitive to the cytotoxic effects of the non-natural nucleoside (vide inf ra). […] Treatment with 40 μg mL^−1 of 3-Eth-5-NIdR produces low levels of “clicked” DNA (0.02%). […] Once incorporated into DNA, the non-natural nucleotide inhibits cellular DNA replication and induces apoptosis. Finally, it should be emphasized that low levels (<0.5%) of AlexaFluor488 staining are detected in cells treated with 100 μg mL^−1 5-NIdR.

[7] = tested on: Loucy cells; assay: Cell proliferation assay (trypan blue), Loucy; type: cell-based; settings: for IC50 / LD50: Loucy (TdT-negative), up to 72 h
Description: as §1

[8] = tested on: Loucy cells; assay: In situ click reaction with AlexaFluor488-azide, flow cytometry, Loucy; type: cell-based
Description: as §3
MOLT4 cells were treated with DMSO, EdU (a “clickable” thymidine analogue), 5-NIdR, and 3-Eth-5-NIdR for 2 days and then washed with PBS to remove any nucleoside and/or nucleotide not incorporated into DNA. After fixation and permeabilization, the cells were treated with AlexaFluor488-azide and Cu(I) catalyst to commence “clicking” of any incorporated nonnatural nucleotide. […] Finally, it should be emphasized that low levels (<0.5%) of AlexaFluor488 staining are detected in cells treated with 100 μg mL^−1 5-NIdR.

[9] = tested on: Jurkat cells; assay: Cell proliferation assay (trypan blue), Jurkat; type: cell-based; settings: up to 72 h
Description: as §1, §2

[10] = target: terminal deoxynucleotidyl transferase (TdT) (Bos taurus, UniProt P06526); assay: Incorporation of natural and non-natural nucleotides by TdT (polymerization assay, Michaelis-Menten kinetics); type: biochemical; settings: for Km / Vmax: incorporation by TdT, 1.5 μM single-stranded DNA substrate
Description: All enzymatic assays were performed as previously described. […] Reactions were quenched with 200 Mm EDTA at variable times (5-600 s) and analyzed using denaturing gel electrophoresis. Time courses in product formation were fitted using eq 1: Y=mt+b(1) (1)
where y is the amount of product, m is the rate of the reaction, t is time, and b is the Y-intercept. Km and Vmax values were determined by fits of the data points to the Michaelis-Menten equation: […]
where Vmax is the maximal rate of nucleotide incorporation, Km is the Michaelis constant for dNTP, and [dNTP] is the concentration of nucleotide substrate. The IC50 value for 3-Eth-5-NITP was obtained using a nonlinear regression curve fit of the data to eq 3:
The biological function of TdT is to expand immunological diversity by randomly incorporating dNTPs into single-stranded DNA during V(D)J recombination. […] TdT also utilizes nucleotide analogues including 2′,3′-dideoxynucleotides, dinucleoside 5′,5′-tetraphosphates, and intrinsically fluorescent nucleotide analogues. In this report, we tested if TdT also incorporates indolyl-2′-deoxyribose-5′-triphosphates that bear non-natural moieties such as ethynyl and nitro groups at the 3- and 5-position, respectively, of the indole base. […] Aliquots of the reaction were quenched with EDTA at variable time points, and the polymerization reactions were then subjected to denaturing polyacrylamide gel electrophoresis to separate extended primers from unreacted substrate.
Time courses in product formation were generated using pseudo-first order reaction conditions in which 6 units of TdT were incubated with 1.5 μM DNA substrate and mixed with variable concentrations of non-natural nucleotide (0.05-50 μM). Each time course was fit to an equation for a straight line to define the rate of nucleotide incorporation (data not shown).

[11] = MOLT4, 40 μg mL^−1, compared to DMSO
[12] = MOLT4, 100 μg mL^−1, 2 days post-treatment
[13] = MOLT4, 100 μg mL^−1, compared to DMSO

terminal deoxynucleotidyl transferase (TdT), sequence (P06526 whole entry): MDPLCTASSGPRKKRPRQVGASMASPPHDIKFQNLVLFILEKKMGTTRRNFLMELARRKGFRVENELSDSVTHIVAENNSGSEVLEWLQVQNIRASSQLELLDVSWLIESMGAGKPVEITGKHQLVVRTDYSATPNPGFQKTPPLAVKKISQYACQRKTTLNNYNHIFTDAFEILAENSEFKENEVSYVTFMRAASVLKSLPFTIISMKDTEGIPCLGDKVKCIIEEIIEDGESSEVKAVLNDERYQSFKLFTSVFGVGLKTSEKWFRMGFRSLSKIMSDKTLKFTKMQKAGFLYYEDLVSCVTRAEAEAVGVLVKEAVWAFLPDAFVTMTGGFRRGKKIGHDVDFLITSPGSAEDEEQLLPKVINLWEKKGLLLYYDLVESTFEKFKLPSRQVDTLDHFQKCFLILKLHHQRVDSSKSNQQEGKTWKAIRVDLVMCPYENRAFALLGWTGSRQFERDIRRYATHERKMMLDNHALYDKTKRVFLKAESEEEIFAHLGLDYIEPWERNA

## C#Cc1cn([C@H]2C[C@H](O)[C@@H](CO)O2)c2ccc([N+](=O)[O-])cc12 [3-Eth-5-NIdR, 3-ethynyl-5-nitroindolyl-2′-deoxynucleoside]
[1]
  IC50: 23 ± 2 µg/mL (≈ 76.1 µM)
  LD50: 57 ± 2 µg/mL
[2]
  IC50: 34 ± 6 µg/mL (≈ 112 µM)
  LD50: 71 ± 6 µg/mL
[3]; MOLT4, 10 μg mL^−1
  cytostatic and cytotoxic effects: cytostatic and cytotoxic effects are observed
[3]
  IC50: 14.1 ± 2.4 µg/mL (≈ 46.6 µM)
  LD50: 27.7 ± 1.7 µg/mL
[3]; listed as 3-Eth-5-NIdr
  IC50: 14 ± 2 µg/mL (≈ 46.3 µM)
  LD50: 28 ± 4 µg/mL
[4]
  PI uptake (necrotic cell death): no significant PI uptake
[4]; MOLT4, 10 μg mL^−1
  Early apoptoic cells (%): 10.5 ± 1.5%
  Late apoptoic cells (%): 5.4 ± 1.0%
  Necrotic cells (%): 0.7 ± 0.2%
  Viable cells (%): 83.4 ± 2.7%
  level of apoptosis compared with 100 μg mL^−1 5-NIdR: equivalent levels of apoptosis
[4]; MOLT4, 40 μg mL^−1
  Early apoptoic cells (%): 68.8 ± 0.9%
  Late apoptoic cells (%): 23.7 ± 4.9%
  Necrotic cells (%): 1.2 ± 0.2%
  Viable cells (%): 6.3 ± 3.7%
[4]; [11]
  increase in early stage apoptosis: 13 fold
  increase in late stage apoptosis: 7 fold
[5]
  IC50: 23 ± 2 µg/mL (≈ 76.1 µM)
  LD50: ~100 µg/mL
[6]; MOLT4, 10 μg mL^−1, 2 days
  AlexaFluor488 stained (clicked) DNA: 2.8%
[6]; MOLT4, 40 μg mL^−1, 2 days
  AlexaFluor488 staining (clicked DNA): 6.5%
[6]; MOLT4, 40 vs 10 μg mL^−1
  increase in AlexaFluor488 staining: 2.5 fold
[7]
  IC50: 62 ± 5 µg/mL (≈ 205 µM)
  LD50: 63 ± 3 µg/mL
[7]; Loucy, 40 μg mL^−1
  cytostatic or cytotoxic effects: significant cytostatic or cytotoxic effects are not observed
[8]; 40 μg mL^−1, 2 days
  clicked DNA (AlexaFluor488 staining): 0.02%
[9]
  IC50: 49 ± 1 µg/mL (≈ 162 µM)
  LD50: ~100 µg/mL

## O=[N+]([O-])c1ccc2c(ccn2C2CC(O)C(COP(=O)(O)OP(=O)(O)OP(=O)(O)O)O2)c1 (stereo not drawn) [5-NITP]
[10]; 100 μM nucleotide, 6 units TdT, 1.5 μM 14-mer (FIG. 2B)
  utilization by TdT (elongation of 14-mer DNA substrate): utilized by TdT as efficiently as the natural purines
[10]; 100 μM nucleotide, 14-mer DNA, gel (FIG. 2B)
  extension by TdT beyond the incorporated nucleotide: rivals that of the natural purines
[10]; 6 units TdT
  Km: 4.6 ± 0.6 µM
  Vmax: 11.5 ± 0.4 nM/s

## O=[N+]([O-])c1ccc2c(ccn2[C@H]2C[C@H](O)[C@@H](CO)O2)c1 [5-NIdR, 5-nitroindolyl-2′-deoxynucleoside, reference compound]
[1]
  IC50: >100 µg/mL
  LD50: >>100 μg mL^−1
[2]
  IC50: ~100 µg/mL (≈ 359 µM)
  LD50: >>100 μg mL^−1
[3]; [12]
  increase in the number of non-viable cells: 2.5 fold
  reduction in the number of viable cells: ~5 fold
[3]
  IC50: 34 ± 6 µg/mL (≈ 122 µM)
  LD50: ~100 µg/mL
[4]
  PI uptake (necrotic cell death): no significant PI uptake
[4]; MOLT4, 100 μg mL^−1
  Early apoptoic cells (%): 26.5 ± 3.7%
  Late apoptoic cells (%): 18.9 ± 3.4%
  Necrotic cells (%): 1.5 ± 0.5%
  Viable cells (%): 53.1 ± 6.7%
[4]; [13]
  increase in early stage apoptosis: 5 fold
  increase in late stage apoptosis: 5 fold
[5]
  IC50: ~100 µg/mL (≈ 359 µM)
  LD50: >>100 μg mL^−1
[6]; 100 μg mL^−1, 2 days, cell line not given
  AlexaFluor488 staining: < 0.5%
[7]
  IC50: >>100 μg mL^−1
  LD50: >>100 μg mL^−1
[7]; Loucy, 100 μg mL^−1
  increase in the number of non-viable cells: does not cause a substantial increase
  reduction in the number of viable cells: < 25%
[9]
  IC50: ~100 µg/mL (≈ 359 µM)
  LD50: >>100 μg mL^−1

## C#Cc1cn([C@H]2C[C@H](O)[C@@H](CO)O2)c(=O)[nH]c1=O [EdU, 5-ethynyl-2′-deoxyuridine, reference compound]
[6]; MOLT4, 10 μM, 2 days
  AlexaFluor488 stained (clicked) DNA: 36.1%
[8]; 10 μM, 2 days
  AlexaFluor488 staining (clicked DNA): 59.2%

## Nc1ncnc2c1ncn2[C@H]1C[C@H](O)[C@@H](COP(=O)(O)OP(=O)(O)OP(=O)(O)O)O1 [dATP]
[10]; 6 units TdT
  Km: 1.5 ± 0.4 µM
  Vmax: 3.3 ± 0.3 nM/s

## Nc1nc2c(ncn2[C@H]2C[C@H](O)[C@@H](COP(=O)(O)OP(=O)(O)OP(=O)(O)O)O2)c(=O)[nH]1 [dGTP]
[10]; 6 units TdT
  Km: 8 ± 0.9 µM
  Vmax: 29.2 ± 1.1 nM/s
